In PMC9454393 (Scientific Reports, 2022):
“Also recorded” adds a separate entry of the source. Like-named read-outs stand apart in the source and are kept apart here.

Legend:
AChE [1] = target: T1, AChE (Homo sapiens, UniProt P22303); details: read-out: IC50 against AChE, cited from earlier work
BuChE = details: read-out: IC50 against BuChE, cited from earlier work
AChE [2] = target: T1, AChE; test: Kinetic study of AChE inhibition (Lineweaver-Burk plots, Ellman's method); format: biochemical
Method: The kinetic study of AChE was carried out at five different concentrations (0–8 µM) of compound 4ad by Ellman's method. […]. The inhibition constant Ki was calculated by the plot of slopes versus the corresponding concentrations of the 4ad.

BChE = BChE (Homo sapiens, UniProt P06276); test: BChE inhibition, modified Ellman's spectrophotometric assay; format: biochemical
Method: (§1) A previously described modified protocol of Ellman's spectrophotometric assay in clear flat-bottomed, 96-well plates, was used. […] The absorbance of each well was measured at 415 nm using a microplate reader. […]

AChE [3] = target: T1, AChE; test: biochemical; details: mean ± SD
Method: as §1

[4] = Fig. 2 traditional AChE inhibitors

Chain of BChE (P06276 29-602): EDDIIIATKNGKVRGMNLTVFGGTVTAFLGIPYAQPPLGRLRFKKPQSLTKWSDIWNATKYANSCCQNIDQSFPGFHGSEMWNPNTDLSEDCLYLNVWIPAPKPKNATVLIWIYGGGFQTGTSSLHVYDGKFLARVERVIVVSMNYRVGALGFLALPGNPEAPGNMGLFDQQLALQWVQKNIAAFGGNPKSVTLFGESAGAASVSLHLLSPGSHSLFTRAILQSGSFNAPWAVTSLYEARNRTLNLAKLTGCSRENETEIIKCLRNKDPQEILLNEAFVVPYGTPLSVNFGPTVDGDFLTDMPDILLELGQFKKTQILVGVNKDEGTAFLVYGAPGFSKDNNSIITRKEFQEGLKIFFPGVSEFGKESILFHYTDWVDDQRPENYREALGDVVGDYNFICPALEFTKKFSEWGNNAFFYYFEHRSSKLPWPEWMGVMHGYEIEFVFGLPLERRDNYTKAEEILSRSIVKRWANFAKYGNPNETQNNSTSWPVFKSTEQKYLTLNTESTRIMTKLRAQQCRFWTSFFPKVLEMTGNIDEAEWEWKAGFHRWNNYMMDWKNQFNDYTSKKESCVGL
T1 sequence (P22303 32-614): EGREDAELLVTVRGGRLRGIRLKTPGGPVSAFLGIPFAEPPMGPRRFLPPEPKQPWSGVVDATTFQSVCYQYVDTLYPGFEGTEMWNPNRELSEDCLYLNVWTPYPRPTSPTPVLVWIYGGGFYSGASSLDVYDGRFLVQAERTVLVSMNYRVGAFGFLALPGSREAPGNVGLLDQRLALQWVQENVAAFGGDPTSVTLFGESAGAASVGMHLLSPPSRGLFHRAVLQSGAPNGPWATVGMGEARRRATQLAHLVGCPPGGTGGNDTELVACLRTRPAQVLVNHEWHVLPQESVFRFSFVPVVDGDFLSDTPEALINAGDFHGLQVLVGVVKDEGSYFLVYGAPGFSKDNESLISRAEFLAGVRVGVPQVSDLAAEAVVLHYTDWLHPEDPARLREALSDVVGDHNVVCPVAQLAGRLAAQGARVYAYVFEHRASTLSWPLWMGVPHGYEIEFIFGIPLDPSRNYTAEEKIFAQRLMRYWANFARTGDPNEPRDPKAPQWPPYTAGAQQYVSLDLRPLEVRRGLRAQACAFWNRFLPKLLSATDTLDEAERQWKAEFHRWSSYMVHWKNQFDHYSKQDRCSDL

For `c1ccc(C[n+]2ccc(-c3nc4ccccc4s3)cc2)cc1` [C], the IC50 (AChE [1]; [4]) is given as 0.014 µM and the IC50 (BuChE; [4]) is given as 0.182 µM.

In the case of `O=C(NC1CCN(Cc2ccccc2)CC1)c1cc(-c2cccc([N+](=O)[O-])c2)on1` [F], the IC50 (AChE [1]; [4]) is listed as 16.1 µM and the IC50 (BuChE; [4]) is listed as 15.2 µM.

For `COc1cccc2cc(C(=O)/C=C/c3ccc[n+](Cc4ccccc4Br)c3)oc12` [D], the IC50 (AChE [1]; [4]) is given as 0.027 µM.

For `O=C1c2ccccc2C(=O)N1Cc1cc[n+](Cc2ccc(F)cc2)cc1` [B], the IC50 (AChE [1]; [4]) is listed as 0.77 µM and the IC50 (BuChE; [4]) is listed as 8.71 µM.

For `CN1CCC2COc3ccccc3C21` (stereo not drawn) [H], the IC50 (AChE [1]; Fig. 3) is listed as 7.75 µM and the IC50 (BuChE; Fig. 3) is listed as 7.23 µM.

With `CSc1c([N+](=O)[O-])c(C(C#N)C(N)=O)c(-c2ccc(Cl)cc2)n1-c1ccc(O)cc1` (stereo not drawn) [Compound 4ad, 2-(2-(4-chlorophenyl)-1-(4-hydroxyphenyl)-5-(methylthio)-4-nitro-1H-pyrrol-3-yl)-2-cyanoacetamide] the “type of AChE inhibition” value (AChE [2]; Lineweaver-Burk plots, Km and Vmax reduced with increasing inhibitor concentration) was “uncompetitive”, the Ki (AChE [2]; estimated from plot of Km versus concentrations of 4ad (0-8 µM), substrate acetylthiocholine 0.1-1 mM, read-out: inhibition constant, Ki) was 2.84 µM and the “BChE inhibition (in words)” value (BChE) was “no significant inhibition; also recorded: inactive”. It also gave an inhibition at 50 µM (BChE; 50 µM compound, mean ± SD, NA = not active) of 20 ± 1.33%, an inhibition at 50 µM (AChE [3]; 50 µM compound, NA = not active) of 89.8 ± 2.36% and an IC50 (AChE [3]) of 2.95 ± 1.31 µM.
